Source: ChEMBL document CHEMBL1201862, “PubChem BioAssay data set” (2004)
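How tested: cells in 96-well plates exposed to compound for 48 hours at five concentrations. GI50 is the concentration that inhibits growth by half.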 Active and inactive are the calls of the source. No stated cut-off is given here; in the data, active = GI50 up to about 1.1 µM and inactive = higher.

Assays:
Test in all cases: NCI-60 cell line screen, 48 h
SK-OV-3 = test system: SK-OV-3
CAKI-1 = test system: CAKI-1
HOP-92 = test system: HOP-92
M14 = test system: M14
SF-295 = test system: SF-295
SK-MEL-2 = test system: SK-MEL-2
SR = test system: SR
T47D = test system: T47D
BT-549 = test system: BT-549
OVCAR-3 = test system: OVCAR-3
SK-MEL-5 = test system: SK-MEL-5
A498 = test system: A498
KM12 = test system: KM12
Hs-578T = test system: Hs-578T
IGROV-1 = test system: IGROV-1
COLO 205 = test system: COLO 205
CCRF-CEM = test system: CCRF-CEM
SF-268 = test system: SF-268
PC-3 = test system: PC-3
SNB-78 = test system: SNB-78

SMILES	GI50 (SK-OV-3)	GI50 (CAKI-1)	GI50 (HOP-92)	GI50 (M14)	GI50 (SF-295)	GI50 (SK-MEL-2)	GI50 (SR)	GI50 (T47D)	GI50 (BT-549)	GI50 (OVCAR-3)	GI50 (SK-MEL-5)	GI50 (A498)	GI50 (KM12)	GI50 (Hs-578T)	GI50 (IGROV-1)	GI50 (COLO 205)	GI50 (CCRF-CEM)	GI50 (SF-268)	GI50 (PC-3)	GI50 (SNB-78)
CN(C)c1ccc(/N=N\c2cccc3ccoc23)cc1	> 100 µM (inactive)	> 62.4 µM (inactive)	70.5 µM (inactive)	> 40.8 µM (inactive)	98.6 µM (inactive)	> 100 µM (inactive)	23.3 µM (inactive)	61.7 µM (inactive)	> 95.7 µM (inactive)	38.4 µM (inactive)	43.4 µM (inactive)	> 100 µM (inactive)	> 73.1 µM (inactive)	> 100 µM (inactive)	> 70.3 µM (inactive)	> 82.8 µM (inactive)	> 100 µM (inactive)	> 100 µM (inactive)	59.6 µM (inactive)	–
CC(C)(C)C(=O)Nc1cccc2oc(-c3ccccc3)cc12	> 100 µM (inactive)	> 100 µM (inactive)	56.2 µM (inactive)	> 100 µM (inactive)	> 100 µM (inactive)	> 100 µM (inactive)	88.5 µM (inactive)	–	–	> 100 µM (inactive)	–	> 100 µM (inactive)	> 100 µM (inactive)	–	> 100 µM (inactive)	> 100 µM (inactive)	> 100 µM (inactive)	–	–	14.1 µM (inactive)
Cc1ccccc1C(C#N)C(=O)C(=O)Nc1nc([N+](=O)[O-])cs1 (centres undefined)	> 100 µM (inactive)	> 100 µM (inactive)	–	> 100 µM (inactive)	–	–	–	–	–	> 100 µM (inactive)	> 100 µM (inactive)	> 100 µM (inactive)	> 100 µM (inactive)	–	> 100 µM (inactive)	–	–	> 100 µM (inactive)	–	> 100 µM (inactive)
CSc1nc(NC2OCC(OC(C)=O)C(OC(C)=O)C2OC(C)=O)c(/N=C\C=N\c2c(NC3OCC(OC(C)=O)C(OC(C)=O)C3OC(C)=O)nc(SC)[nH]c2=O)c(=O)[nH]1 (centres undefined)	28.9 µM (inactive)	> 100 µM (inactive)	35.5 µM (inactive)	> 100 µM (inactive)	> 66.8 µM (inactive)	> 100 µM (inactive)	> 100 µM (inactive)	89.7 µM (inactive)	55.2 µM (inactive)	> 100 µM (inactive)	> 100 µM (inactive)	> 100 µM (inactive)	> 100 µM (inactive)	42 µM (inactive)	> 93.1 µM (inactive)	> 100 µM (inactive)	> 54.8 µM (inactive)	> 100 µM (inactive)	–	> 94.6 µM (inactive)
OC(CC(CC(O)(C(F)(F)Cl)C(F)(F)Cl)=NNc1ccccc1)(C(F)(F)Cl)C(F)(F)Cl	4.04 µM (inactive)	2.9 µM (inactive)	2.01 µM (inactive)	4.26 µM (inactive)	2.91 µM (inactive)	1.4 µM (inactive)	5.79 µM (inactive)	4.11 µM (inactive)	1.94 µM (inactive)	2.77 µM (inactive)	1.71 µM (inactive)	2.54 µM (inactive)	3.12 µM (inactive)	2.45 µM (inactive)	5.62 µM (inactive)	1.91 µM (inactive)	> 10 µM (inactive)	2.55 µM (inactive)	1.35 µM (inactive)	–
ClC(Cl)=C1C(=C(Cl)Cl)C(Cl)(Cl)C1(Cl)Cl	14.9 µM (inactive)	2.89 µM (inactive)	1.24 µM (inactive)	1.06 µM (active)	2.48 µM (inactive)	1.29 µM (inactive)	0.214 µM (active)	4.92 µM (inactive)	2.77 µM (inactive)	4.31 µM (inactive)	2.82 µM (inactive)	11.6 µM (inactive)	4.9 µM (inactive)	2.36 µM (inactive)	5.55 µM (inactive)	2.92 µM (inactive)	0.101 µM (active)	2.21 µM (inactive)	2.31 µM (inactive)	2.34 µM (inactive)
COc1cc2c(cc1Cc1c(F)cccc1Cl)nc(-c1c(F)cccc1Cl)n2Cc1c(F)cccc1Cl	20.8 µM (inactive)	6.07 µM (inactive)	2.64 µM (inactive)	> 100 µM (inactive)	14 µM (inactive)	12.6 µM (inactive)	26.7 µM (inactive)	10.2 µM (inactive)	28.8 µM (inactive)	11.6 µM (inactive)	13.5 µM (inactive)	27.3 µM (inactive)	28.4 µM (inactive)	21.3 µM (inactive)	32.4 µM (inactive)	44.8 µM (inactive)	2.1 µM (inactive)	58.9 µM (inactive)	10.7 µM (inactive)	–
Oc1ccc(O)c(-n2cccn2)c1-n1cccn1	> 100 µM (inactive)	> 100 µM (inactive)	> 100 µM (inactive)	> 100 µM (inactive)	37.2 µM (inactive)	> 100 µM (inactive)	–	–	–	> 100 µM (inactive)	> 100 µM (inactive)	> 100 µM (inactive)	> 100 µM (inactive)	–	> 100 µM (inactive)	30.5 µM (inactive)	> 10 µM (inactive)	> 100 µM (inactive)	–	> 100 µM (inactive)
NC(=S)N/N=C1/CN(c2ccc(Cl)c(Cl)c2)CC(=O)C1c1nc2ccccc2s1 (centres undefined)	> 100 µM (inactive)	> 100 µM (inactive)	> 100 µM (inactive)	> 100 µM (inactive)	46.9 µM (inactive)	> 100 µM (inactive)	–	–	–	67 µM (inactive)	> 100 µM (inactive)	> 100 µM (inactive)	42.9 µM (inactive)	–	> 100 µM (inactive)	> 100 µM (inactive)	66.2 µM (inactive)	46.8 µM (inactive)	–	> 100 µM (inactive)
CCN(CC)CCSc1c2ccccc2nc2c(OC)ccc(OC)c12	36 µM (inactive)	3.1 µM (inactive)	2.36 µM (inactive)	2.44 µM (inactive)	33.4 µM (inactive)	–	1.1 µM (active)	–	–	–	4.66 µM (inactive)	13.3 µM (inactive)	5.79 µM (inactive)	–	6.32 µM (inactive)	2.72 µM (inactive)	2.13 µM (inactive)	15.1 µM (inactive)	–	5.31 µM (inactive)
CCc1ccccc1NC(=O)CCc1nnc(S)[nH]1	> 100 µM (inactive)	> 100 µM (inactive)	> 100 µM (inactive)	> 100 µM (inactive)	> 100 µM (inactive)	> 100 µM (inactive)	> 100 µM (inactive)	–	–	> 100 µM (inactive)	> 100 µM (inactive)	> 100 µM (inactive)	> 100 µM (inactive)	–	> 100 µM (inactive)	> 100 µM (inactive)	> 100 µM (inactive)	> 100 µM (inactive)	–	> 100 µM (inactive)
CS(=O)(=O)c1ccc(-c2cc(-c3ccc(S(C)(=O)=O)cc3)[n+](-c3cc(-c4ccc(S(C)(=O)=O)cc4)c([O-])c(-c4ccc(S(C)(=O)=O)cc4)c3)c(-c3ccc(S(C)(=O)=O)cc3)c2)cc1	–	> 100 µM (inactive)	–	> 100 µM (inactive)	91.8 µM (inactive)	> 100 µM (inactive)	> 100 µM (inactive)	–	–	> 100 µM (inactive)	> 100 µM (inactive)	–	> 100 µM (inactive)	–	> 100 µM (inactive)	> 100 µM (inactive)	> 100 µM (inactive)	> 100 µM (inactive)	–	> 100 µM (inactive)
C#CCN(N=O)C(=O)ON1C(=O)CCC1=O	> 100 µM (inactive)	–	> 100 µM (inactive)	> 100 µM (inactive)	> 100 µM (inactive)	> 100 µM (inactive)	–	–	–	> 100 µM (inactive)	> 100 µM (inactive)	> 100 µM (inactive)	> 100 µM (inactive)	–	> 100 µM (inactive)	> 100 µM (inactive)	> 100 µM (inactive)	> 100 µM (inactive)	–	> 100 µM (inactive)
CC1=C(C#N)C(=O)CC(c2ccc(Cl)cc2)N(C)N1 (centres undefined)	> 100 µM (inactive)	> 100 µM (inactive)	> 100 µM (inactive)	> 100 µM (inactive)	> 100 µM (inactive)	> 100 µM (inactive)	> 100 µM (inactive)	–	–	–	> 100 µM (inactive)	> 100 µM (inactive)	> 100 µM (inactive)	–	–	–	–	> 100 µM (inactive)	–	> 100 µM (inactive)
FC(F)(F)c1ccccc1/C=N/C12CC3CC(CC(C3)C1)C2	> 100 µM (inactive)	> 100 µM (inactive)	–	> 100 µM (inactive)	> 100 µM (inactive)	> 100 µM (inactive)	> 100 µM (inactive)	–	–	> 100 µM (inactive)	6.03 µM (inactive)	> 100 µM (inactive)	> 100 µM (inactive)	–	> 100 µM (inactive)	> 100 µM (inactive)	–	> 100 µM (inactive)	–	> 100 µM (inactive)
O=S(=O)(c1ccccc1)N1N=C2c3ccccc3CCC[C@H]2C1c1ccccc1 (some centres undefined)	34.2 µM (inactive)	> 100 µM (inactive)	> 100 µM (inactive)	> 100 µM (inactive)	> 100 µM (inactive)	> 100 µM (inactive)	95.7 µM (inactive)	–	–	> 100 µM (inactive)	> 100 µM (inactive)	> 100 µM (inactive)	> 92.3 µM (inactive)	–	> 100 µM (inactive)	> 100 µM (inactive)	> 100 µM (inactive)	> 100 µM (inactive)	–	> 100 µM (inactive)
N#CC(C#N)=C(C(C#N)C#N)C(C#N)C#N	> 100 µM (inactive)	> 100 µM (inactive)	> 100 µM (inactive)	> 100 µM (inactive)	> 100 µM (inactive)	–	> 100 µM (inactive)	–	–	> 100 µM (inactive)	> 100 µM (inactive)	> 100 µM (inactive)	> 100 µM (inactive)	–	> 100 µM (inactive)	> 100 µM (inactive)	> 100 µM (inactive)	> 100 µM (inactive)	–	> 100 µM (inactive)
